This note sets out measurements from the Kinase Knowledgebase extract (Sharma et al. 2016).

Assay [1] addresses PIK3CA (human) (UniProt P42336). As to the kind of experiment: Enzyme Assay.
Assay [2] has as its target PIK3CB (Human) (UniProt P42338). As to the kind of experiment: Enzyme Assay.
The target of assay [3] is PIK3CD (Human) (UniProt O00329). Kind of assay: Cell-Based Assay. As to conditions: raji.
Assay [4] deals with PIK3CG (human) (UniProt P48736). As to the kind of experiment: Enzyme Assay.
Chain of PIK3CG (human) (P48736 whole entry, looked up): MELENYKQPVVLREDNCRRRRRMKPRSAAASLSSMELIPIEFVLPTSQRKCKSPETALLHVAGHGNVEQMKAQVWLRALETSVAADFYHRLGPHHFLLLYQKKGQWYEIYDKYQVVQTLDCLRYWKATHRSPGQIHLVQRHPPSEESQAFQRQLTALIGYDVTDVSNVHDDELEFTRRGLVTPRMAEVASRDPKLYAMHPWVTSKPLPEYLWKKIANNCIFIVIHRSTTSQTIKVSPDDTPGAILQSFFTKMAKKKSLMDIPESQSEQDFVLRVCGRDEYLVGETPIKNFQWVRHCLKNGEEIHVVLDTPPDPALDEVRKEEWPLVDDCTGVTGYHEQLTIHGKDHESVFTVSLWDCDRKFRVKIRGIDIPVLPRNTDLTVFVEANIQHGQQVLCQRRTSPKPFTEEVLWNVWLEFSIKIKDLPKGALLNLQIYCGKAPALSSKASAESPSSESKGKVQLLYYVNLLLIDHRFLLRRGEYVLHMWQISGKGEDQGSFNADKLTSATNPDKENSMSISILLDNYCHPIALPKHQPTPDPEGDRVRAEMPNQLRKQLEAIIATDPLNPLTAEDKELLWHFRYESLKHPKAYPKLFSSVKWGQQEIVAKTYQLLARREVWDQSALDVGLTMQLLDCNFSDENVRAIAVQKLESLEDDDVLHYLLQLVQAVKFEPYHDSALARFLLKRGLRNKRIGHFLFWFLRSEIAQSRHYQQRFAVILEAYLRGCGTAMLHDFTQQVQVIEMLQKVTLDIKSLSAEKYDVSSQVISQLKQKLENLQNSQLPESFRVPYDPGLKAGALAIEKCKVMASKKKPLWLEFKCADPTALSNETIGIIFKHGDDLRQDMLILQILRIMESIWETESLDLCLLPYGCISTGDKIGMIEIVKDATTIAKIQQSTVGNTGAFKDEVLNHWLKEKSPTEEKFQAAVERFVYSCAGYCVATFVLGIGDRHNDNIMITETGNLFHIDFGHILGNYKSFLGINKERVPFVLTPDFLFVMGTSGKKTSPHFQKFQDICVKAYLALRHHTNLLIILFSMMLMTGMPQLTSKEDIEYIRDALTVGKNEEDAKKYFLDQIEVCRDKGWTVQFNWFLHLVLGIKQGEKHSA

Chain of PIK3CB (Human) (P42338 whole entry, looked up): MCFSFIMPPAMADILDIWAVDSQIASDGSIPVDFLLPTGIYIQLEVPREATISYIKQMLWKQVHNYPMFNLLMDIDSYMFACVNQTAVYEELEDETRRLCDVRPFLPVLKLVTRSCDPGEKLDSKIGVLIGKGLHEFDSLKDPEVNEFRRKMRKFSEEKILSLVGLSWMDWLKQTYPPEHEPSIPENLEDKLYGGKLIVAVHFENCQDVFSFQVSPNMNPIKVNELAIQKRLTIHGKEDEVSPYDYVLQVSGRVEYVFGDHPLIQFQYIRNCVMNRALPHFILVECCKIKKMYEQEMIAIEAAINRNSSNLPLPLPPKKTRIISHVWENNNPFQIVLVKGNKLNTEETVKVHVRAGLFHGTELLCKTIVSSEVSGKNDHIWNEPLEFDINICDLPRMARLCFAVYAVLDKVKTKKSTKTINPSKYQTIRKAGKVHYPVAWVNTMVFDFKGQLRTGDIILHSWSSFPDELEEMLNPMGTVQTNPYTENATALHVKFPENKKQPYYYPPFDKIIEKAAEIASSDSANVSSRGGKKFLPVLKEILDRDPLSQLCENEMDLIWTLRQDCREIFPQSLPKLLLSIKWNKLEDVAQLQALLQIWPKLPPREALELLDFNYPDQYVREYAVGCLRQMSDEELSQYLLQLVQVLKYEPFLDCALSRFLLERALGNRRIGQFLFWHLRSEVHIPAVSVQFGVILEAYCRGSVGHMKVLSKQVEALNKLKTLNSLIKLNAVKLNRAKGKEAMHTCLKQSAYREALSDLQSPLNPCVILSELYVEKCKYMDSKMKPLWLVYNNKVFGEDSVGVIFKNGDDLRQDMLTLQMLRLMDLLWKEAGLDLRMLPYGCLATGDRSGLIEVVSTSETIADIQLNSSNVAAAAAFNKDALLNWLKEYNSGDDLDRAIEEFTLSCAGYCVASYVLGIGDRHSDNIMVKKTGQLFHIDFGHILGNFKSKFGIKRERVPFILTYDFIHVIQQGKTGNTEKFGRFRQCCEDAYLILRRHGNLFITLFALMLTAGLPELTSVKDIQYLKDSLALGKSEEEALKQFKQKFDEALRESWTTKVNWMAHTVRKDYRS
Chain of PIK3CA (human) (P42336 whole entry, looked up): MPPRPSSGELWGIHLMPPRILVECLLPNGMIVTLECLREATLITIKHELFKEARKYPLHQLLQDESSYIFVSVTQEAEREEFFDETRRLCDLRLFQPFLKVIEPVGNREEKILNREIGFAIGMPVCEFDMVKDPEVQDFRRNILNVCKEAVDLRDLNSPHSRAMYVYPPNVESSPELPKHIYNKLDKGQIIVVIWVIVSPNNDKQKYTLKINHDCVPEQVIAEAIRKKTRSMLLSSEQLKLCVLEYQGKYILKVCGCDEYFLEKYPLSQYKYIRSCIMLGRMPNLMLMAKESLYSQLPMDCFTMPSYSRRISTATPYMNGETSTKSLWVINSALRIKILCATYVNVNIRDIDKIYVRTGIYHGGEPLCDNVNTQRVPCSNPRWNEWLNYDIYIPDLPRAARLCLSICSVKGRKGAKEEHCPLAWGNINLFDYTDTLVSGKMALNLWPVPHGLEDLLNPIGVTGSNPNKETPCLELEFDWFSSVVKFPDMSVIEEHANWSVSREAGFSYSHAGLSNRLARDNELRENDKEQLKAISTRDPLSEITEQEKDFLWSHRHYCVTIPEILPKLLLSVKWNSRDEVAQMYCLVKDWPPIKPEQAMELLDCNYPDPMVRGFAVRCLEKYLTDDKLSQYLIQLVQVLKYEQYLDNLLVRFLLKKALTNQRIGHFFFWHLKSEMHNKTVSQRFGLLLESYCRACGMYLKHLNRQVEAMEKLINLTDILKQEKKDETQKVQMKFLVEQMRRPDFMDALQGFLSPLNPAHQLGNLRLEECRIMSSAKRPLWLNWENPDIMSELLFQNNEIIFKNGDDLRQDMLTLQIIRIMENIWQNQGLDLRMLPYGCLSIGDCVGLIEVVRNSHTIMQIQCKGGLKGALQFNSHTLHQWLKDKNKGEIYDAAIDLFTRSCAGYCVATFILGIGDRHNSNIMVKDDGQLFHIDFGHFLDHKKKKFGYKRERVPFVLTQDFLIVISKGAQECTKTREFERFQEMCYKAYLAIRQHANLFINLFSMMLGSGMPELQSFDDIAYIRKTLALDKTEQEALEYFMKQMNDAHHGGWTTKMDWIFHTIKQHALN
Chain of PIK3CD (Human) (O00329 whole entry, looked up): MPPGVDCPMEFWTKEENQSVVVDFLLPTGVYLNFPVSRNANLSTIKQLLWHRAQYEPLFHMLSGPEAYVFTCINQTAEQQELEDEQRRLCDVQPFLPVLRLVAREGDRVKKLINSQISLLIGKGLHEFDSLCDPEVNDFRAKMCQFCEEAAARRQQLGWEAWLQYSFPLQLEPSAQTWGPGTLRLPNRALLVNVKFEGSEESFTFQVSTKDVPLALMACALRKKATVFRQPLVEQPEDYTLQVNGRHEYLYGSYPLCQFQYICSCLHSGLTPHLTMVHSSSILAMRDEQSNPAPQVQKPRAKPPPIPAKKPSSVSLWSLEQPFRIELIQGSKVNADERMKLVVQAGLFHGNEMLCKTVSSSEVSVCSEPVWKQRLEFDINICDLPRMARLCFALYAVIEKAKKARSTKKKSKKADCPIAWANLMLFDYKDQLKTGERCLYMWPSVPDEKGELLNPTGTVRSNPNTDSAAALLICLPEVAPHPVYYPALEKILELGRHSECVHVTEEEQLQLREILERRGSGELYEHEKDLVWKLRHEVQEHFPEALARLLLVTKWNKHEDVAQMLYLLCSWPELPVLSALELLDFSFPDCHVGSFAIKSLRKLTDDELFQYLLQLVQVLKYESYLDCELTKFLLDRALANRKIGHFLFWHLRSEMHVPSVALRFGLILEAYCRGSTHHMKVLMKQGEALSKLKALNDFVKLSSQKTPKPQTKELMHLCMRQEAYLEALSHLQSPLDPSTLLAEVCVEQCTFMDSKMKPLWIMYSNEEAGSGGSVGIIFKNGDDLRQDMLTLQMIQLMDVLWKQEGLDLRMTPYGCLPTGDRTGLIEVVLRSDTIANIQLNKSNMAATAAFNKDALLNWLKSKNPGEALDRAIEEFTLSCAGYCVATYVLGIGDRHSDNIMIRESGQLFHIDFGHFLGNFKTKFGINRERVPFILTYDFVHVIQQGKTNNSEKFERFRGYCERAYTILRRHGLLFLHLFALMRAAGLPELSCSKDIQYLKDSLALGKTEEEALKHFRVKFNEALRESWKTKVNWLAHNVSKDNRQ

Turning to `C[C@H](NC(=O)c1c(N)nn2cccnc12)c1cc2cccc(OC(F)(F)F)c2c(=O)n1-c1ccccc1`, the IC50 in assay [1] and in assay [2] was at least 10 µM throughout.
With `C[C@H](NC(=O)c1c(N)nn2cccnc12)c1cc2sccc2c(=O)n1-c1ccccc1`, the IC50 – broadly, the concentration that inhibits the measured activity by half – in assay [3] was 0.1 to 1 µM; in assay [1], at least 10 µM.
For the compound `C[C@H](NC(=O)c1c(N)nn2cccnc12)c1cc2cccc(C3CC3)c2c(=O)n1-c1ccccc1`, the figures for the IC50 in assay [3], in assay [1] and in assay [2] were 0.1 to 1 µM, at least 10 µM and at least 10 µM, respectively.
Consider `C[C@H](NC(=O)c1c(N)nn2cccnc12)c1cc2cccc(C#CCNC(=O)c3ccc(C#N)o3)c2c(=O)n1-c1ccccc1`, for which the IC50 is under 0.1 µM in assay [3], 0.1 to 1 µM in assay [1] and 0.1 to 1 µM in assay [4].
Consider `C[C@H](NC(=O)c1c(N)ncc2cccnc12)c1cc2cccc(N3CCOCC3)c2c(=O)n1-c1ccccc1`, for which the IC50 in assay [3] was under 0.1 µM; in assay [1], at least 10 µM; in assay [2] it was at least 10 µM; in assay [4], 0.1 to 1 µM.
`CC(=O)Nc1ccc(-c2cccc3cc([C@H](C)NC(=O)c4c(N)nn5cccnc45)n(-c4ccccc4)c(=O)c23)cc1`: the figures for the IC50 in assay [3], in assay [2] and in assay [4] were under 0.1 µM, at least 10 µM and 0.1 to 1 µM, respectively.
For `C[C@H](NC(=O)c1c(N)nn2cccnc12)c1cc2ccccc2c(=O)n1-c1ccccc1`, the results for the IC50 in assay [3], in assay [1] and in assay [4] were 0.1 to 1 µM, at least 10 µM and 0.1 to 1 µM, respectively.
For the compound `C[C@H](NC(=O)c1nc(-c2cccc(S(=O)(=O)NC3CC3)c2)cnc1N)c1cc2cccc(Cl)c2c(=O)n1-c1ccccc1`, the IC50 is under 0.1 µM in assay [3] and at least 10 µM in assay [1].
With `C[C@H](NC(=O)c1c(N)nn2cccnc12)c1cc2ccsc2c(=O)n1-c1ccccc1`, the IC50 in assay [3] is 0.1 to 1 µM; in assay [1], at least 10 µM.
As for `C[C@H](NC(=O)c1cnn2cccnc12)c1cc2cccc(C#CCNC(=O)[C@@H]3CCCO3)c2c(=O)n1-c1ccccc1`, the IC50 in assay [3] is under 0.1 µM; in assay [1], 0.1 to 1 µM; in assay [2], 0.1 to 1 µM; in assay [4], under 0.1 µM.
`C[C@H](NC(=O)c1c(N)nn2cccnc12)c1cc2cccc(C(F)(F)F)c2c(=O)n1-c1ccccc1`: the IC50 is under 0.1 µM in assay [3], at least 10 µM in assay [1] and 0.1 to 1 µM in assay [4].
In the case of `CC(=O)Nc1cccc(-c2cccc3cc([C@H](C)NC(=O)c4c(N)nn5cccnc45)n(-c4ccccc4)c(=O)c23)c1`, the results for the IC50 in assay [3], in assay [2] and in assay [4] were under 0.1 µM, at least 10 µM and 0.1 to 1 µM, respectively.
For `Cc1cc(C)n2nc(N)c(C(=O)N[C@@H](C)c3cc4cccc(Cl)c4c(=O)n3-c3ccccc3)c2n1`, the IC50 in assay [3] is under 0.1 µM; in assay [2], 0.1 to 1 µM; in assay [4], 0.1 to 1 µM.
Take `C[C@H](NC(=O)c1c(N)nn2cccnc12)c1cc2cccc(C=O)c2c(=O)n1-c1ccccc1`: the IC50 in assay [3] is 0.1 to 1 µM; in assay [1], at least 10 µM.
As for `C[C@H](NC(=O)c1c(N)nn2cccnc12)c1cc2cccc(CO)c2c(=O)n1-c1ccccc1`, the figures for the IC50 in assay [3], in assay [1] and in assay [4] were 0.1 to 1 µM, at least 10 µM and 0.1 to 1 µM, respectively.
As to `CC(C)c1ccn2nc(N)c(C(=O)N[C@@H](C)c3cc4cccc(Cl)c4c(=O)n3-c3ccccc3)c2n1`, the IC50 is 0.1 to 1 µM in assay [3] and at least 10 µM in assay [1].
The like results for `Cc1ccn2ncc(C(=O)N[C@@H](C)c3cc4cccc(Cl)c4c(=O)n3-c3ccccc3)c2n1` were, in that order, 0.1 to 1 µM and at least 10 µM.
Take `CC(NC(=O)c1c(N)nn2cccnc12)c1cc2cccc(Cl)c2nc1-c1ccccc1` (centres undefined): the IC50 was under 0.1 µM in assay [3] and at least 10 µM in assay [1].
For the compound `C[C@H](NC(=O)c1nc(-c2cccc(NS(C)(=O)=O)c2)cnc1N)c1cc2cccc(Cl)c2c(=O)n1-c1ccccc1`, the IC50 in assay [3] is under 0.1 µM; in assay [2], 0.1 to 1 µM; in assay [4] it was under 0.1 µM.
For the compound `COc1ccc(-c2cnc(N)c(C(=O)N[C@@H](C)c3cc4cccc(Cl)c4c(=O)n3-c3ccccc3)n2)cc1NS(C)(=O)=O`, the IC50 in assay [3] was under 0.1 µM; in assay [1] it was 0.1 to 1 µM; in assay [2] it was 0.1 to 1 µM; in assay [4] it was under 0.1 µM.
On to `Nc1nccnc1C(=O)N1CCC[C@H]1c1cc2cccc(Cl)c2c(=O)n1-c1ccccc1`, for which the IC50 in assay [1], in assay [2] and in assay [4] was at least 10 µM in each case.
On to `C[C@H](NC(=O)c1c(N)nn2cccnc12)c1cc2cccc(-c3ccccc3)c2c(=O)n1-c1ccccc1`, for which the IC50 was 0.1 to 1 µM in assay [3], at least 10 µM in assay [2] and 0.1 to 1 µM in assay [4].
Take `C[C@H](NC(=O)c1c(N)nn2cccnc12)c1cc2cccc(Cl)c2c(=O)n1-c1ccc(F)cc1`: the results for the IC50 in assay [3], in assay [2] and in assay [4] were under 0.1 µM, 0.1 to 1 µM and under 0.1 µM, respectively.
